Structures can show the parent of a compound that is named as a salt.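 Test compounds were applied to cells in 96-well plates for 48 hours at 5 doses. GI50 is the concentration that inhibits growth by half.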 The source made the active and inactive calls. No stated cut-off is given here; in the data, active = GI50 up to about 1.1 µM and inactive = higher.
Legend:
Test in all cases: NCI anticancer screen, dose series, 48 h
[1] = test system: A498
[2] = test system: CCRF-CEM
[3] = test system: DU-145
[4] = test system: EKVX
[5] = test system: HCC 2998
[6] = test system: HCT-116
[7] = test system: HL-60
[8] = test system: KM12
[9] = test system: MDA-MB-435
[10] = test system: NCI-H23
[11] = test system: NCI-H460
[12] = test system: NCI/ADR-RES
[13] = test system: OVCAR-4
[14] = test system: RPMI-8226
[15] = test system: SK-MEL-2
[16] = test system: SK-OV-3
[17] = test system: SNB-75
[18] = test system: U-251
[19] = test system: UACC-257
[20] = test system: UACC-62

SMILES | GI50 [1] | GI50 [2] | GI50 [3] | GI50 [4] | GI50 [5] | GI50 [6] | GI50 [7] | GI50 [8] | GI50 [9] | GI50 [10] | GI50 [11] | GI50 [12] | GI50 [13] | GI50 [14] | GI50 [15] | GI50 [16] | GI50 [17] | GI50 [18] | GI50 [19] | GI50 [20]
CCCCOC(=O)CC(CC(=O)OCCCC)(OC(C)=O)C(=O)OCCCC [ACETYLTRIBUTYL CITRATE] | > 200 µM (inactive) | 76.9 µM (inactive) | > 106 µM (inactive) | > 101 µM (inactive) | > 200 µM (inactive) | 56.4 µM (inactive) | 27.8 µM (inactive) | > 112 µM (inactive) | > 178 µM (inactive) | 60.8 µM (inactive) | 162 µM (inactive) | 91.6 µM (inactive) | > 81.5 µM (inactive) | 16 µM (inactive) | > 200 µM (inactive) | > 200 µM (inactive) | 8.49 µM (inactive) | > 200 µM (inactive) | 47.9 µM (inactive) | 117 µM (inactive)
Cc1cc(C)c(/C=C2\C(=O)Nc3ccccc32)[nH]1 [SEMAXANIB] | > 100 µM (inactive) | > 100 µM (inactive) | > 83 µM (inactive) | 2.81 µM (inactive) | 38.8 µM (inactive) | 72.9 µM (inactive) | 7.28 µM (inactive) | 0.998 µM (active) | > 96.4 µM (inactive) | 7.96 µM (inactive) | > 57.8 µM (inactive) | > 100 µM (inactive) | 52.5 µM (inactive) | > 100 µM (inactive) | > 75.9 µM (inactive) | > 66.7 µM (inactive) | 0.906 µM (active) | > 100 µM (inactive) | > 100 µM (inactive) | > 100 µM (inactive)

From ChEMBL document CHEMBL1201862, “PubChem BioAssay data set” (2004)
